According to patent US9295735B2, “Liposomal composition for convection-enhanced delivery to the central nervous centre” (MEDGENESIS THERAPEUTIX, INC., priority 2008, dated 2016):
Where two headings read alike, the source gives them in different places.

Assays:
[1] = Brain tissue pharmacokinetics of Ls-TPT formulations and free topotecan after intracerebral CED (HPLC of total topotecan); type: in vivo, Sprague-Dawley rats
Method: The experiments in this example were performed with research grade material of both liposomal-topotecan (Ls-TPT) and liposomal gadodiamide (Ls-GD). Topotecan (TPT) for free topotecan formulation and for Ls-TPT preparation was obtained from Hisun Pharmaceuticals (Taizhou City, Zhejiang, China). Ls-TPT was provided by Northern Lipids Inc (Burnaby, BC, Canada). In brief, liposomes were composed of distearoylphosphatidylcholine (DSPC), distearoylphosphatidylglycerol (DSPG), and cholesterol at a 7:2:1 molar ratio with 75 to 90 nm target size. Topotecan was remotely loaded (actively encapsulated) into liposomes in response to a transmembrane pH gradient using internal and external buffers consisting of ammonium sulfate 250 mM pH 5.5 and histidine 5 mM/NaCl 145 mM pH 6.0 respectively. Topotecan concentrations of 0.67 and 2.0 mg/mL with a 0.1 and 0.3 (w/w) drug:lipid ratio were respectively targeted assuming a 90-95% drug encapsulation efficiency. A constant total lipid concentration target of 6.7 mg/mL was maintained in both formulations. The manufacturing process is described in details in Example 2.1.2.
For the formulation screening component of this example, the animals were divided in 4 groups based on Ls-TPT formulations or free topotecan as outlined in Table 1.
Rats were anesthetized with either isoflurane (5% for induction; 2.5 to 3.0% for maintenance during surgery) inhalation or a combination of ketamine (60 mg/kg) and xylazine (8 mg/kg) via an intraperitoneal injection. […] Craniectomy was performed using a small electric dental drill with 1-mm diameter burr holes, 0.5 mm anterior and 3 mm left and right from the bregma. […] The test article was injected bilaterally at one site into each striatum.
The brains were removed, placed on ice and the striata dissected using a dorsal approach and the tissue frozen in liquid nitrogen. The tissue was subsequently homogenized with an equal volume of water (1:1 v/v) and then extracted with methanol and stored at −70° C. until shipment to the Sponsor. Tail vein blood was collected (1.0 mL) for the formulation tissue and plasma pharmacokinetics component of this Example.
High performance liquid chromatography (HPLC) of total topotecan (free and liposome-encapsulated) in brain tissue and in plasma was performed by Northern Lipids Inc. (Burnaby, BC, Canada) using an isocratic reversed phase HPLC/UV method. Method details were as follows. Briefly, the animals (n=3) were sacrificed at 1 and 6 hours, 2, 4 and 7 days. The brains were removed, placed on ice, the striata dissected using a dorsal approach and the tissue frozen in liquid nitrogen. Equal volume of ice cold water (1:1 w/w) was added and the thawed tissue was homogenized (Biospec) mechanically for 2 minutes and frozen.

[2] = system: various malignant glioma cells lines; conditions: read-out: 50% inhibitory concentration (IC50), cited from earlier work
[3] = normal rat brain tissue after CED, non-compartmental analysis

**Q.** What does the source list for `CC[C@@]1(O)C(=O)OCc2c1cc1n(c2=O)Cc2cc3c(CN(C)C)c(O)ccc3nc2-1` [Formulation F4, topotecan]?
**A.** concentration at 1 h ([1]; Sprague-Dawley, brain (striatum), normal rat striatum, CED 20 μL per hemisphere, TPT 0.5 mg/mL, 1 hour, read-out: Topotecan brain tissue concentration, Mean ± STD): 44.3 ± 39.4 µM; concentration at 6 h ([1]; Sprague-Dawley, brain (striatum), normal rat striatum, CED 20 μL per hemisphere, TPT 0.5 mg/mL, 6 hours, read-out: Topotecan brain tissue concentration, Mean ± STD): 15.6 ± 13.8 µM; concentration at 48 h ([1]; Sprague-Dawley, brain (striatum), normal rat striatum, CED 20 μL per hemisphere, TPT 0.5 mg/mL, 48 hours, read-out: Topotecan brain tissue concentration, Mean ± STD): 0 nM; concentration at 96 h ([1]; Sprague-Dawley, brain (striatum), normal rat striatum, CED 20 μL per hemisphere, TPT 0.5 mg/mL, 96 hours, read-out: Topotecan brain tissue concentration, Mean ± STD): 0 nM; concentration at 168 h ([1]; Sprague-Dawley, brain (striatum), normal rat striatum, CED 20 μL per hemisphere, TPT 0.5 mg/mL, 168 hours, read-out: Topotecan brain tissue concentration, Mean ± STD): 0 nM; AUC(0-last) [1, 3]: 5.5 µg·days/g; t1/2 [1, 3]: much shorter; Topotecan brain tissue concentration, Mean ± STD ([1]; normal rat striatum, CED 20 μL per hemisphere, TPT 0.5 mg/mL, 1 hour): 0.0203 ± 0.0181 mg/g of brain tissue; Topotecan brain tissue concentration, Mean ± STD ([1]; normal rat striatum, CED 20 μL per hemisphere, TPT 0.5 mg/mL, 6 hours): 0.0071 ± 0.0063 mg/g of brain tissue; Topotecan brain tissue concentration, Mean ± STD ([1]; normal rat striatum, CED 20 μL per hemisphere, TPT 0.5 mg/mL, 48 hours): 0 mg/g of brain tissue; Topotecan brain tissue concentration, Mean ± STD ([1]; normal rat striatum, CED 20 μL per hemisphere, TPT 0.5 mg/mL, 96 hours): 0 mg/g of brain tissue; Topotecan brain tissue concentration, Mean ± STD ([1]; normal rat striatum, CED 20 μL per hemisphere, TPT 0.5 mg/mL, 168 hours): 0 mg/g of brain tissue; IC50 ([2]; exposure over 1 hour): 2400 nM; IC50 ([2]; exposure over 24 hours): 38 nM; IC50 ([2]; exposure over 72 hours): 280 nM; IC50 ([2]; exposure over 120 hours): ≥ 20 nM
